Measurements from patent publication US20230219965A1 (KSQ Therapeutics, Inc., priority 2020, published 2023).
Read-outs that look alike come from different tables or passages of the source.

Tests used:
[1] = system: Ub-PCNA levels in the nucleus of ES2 cells (USP1 activity); experiment: ES2 Ub-PCNA immunofluorescence (IF) assay; type: cell-based; details: Homo sapiens, ES-2; ES2 cells, 3 hours, Ub-PCNA immunofluorescence; read-out: USP1 IC50 (Ub-PCNA)
Summary of the method: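 Cells plated overnight, then compound-treated for 3 h at 37° C (0.3% DMSO final), methanol-fixed and stained with anti-Ub-PCNA plus DAPI. Per-nucleus Ub-PCNA intensity imaged; cells above the 95% cutoff of untreated wells counted as positive, and percent positive cells used to derive AC50.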

[2] = Liver microsomal metabolic stability, rat liver microsomes (RLM); details: rat, liver microsomes, t1/2 (min) in RLM, 1 μM compound, 1 mg/mL microsomes, NADPH
[3] = Liver microsomal metabolic stability, human liver microsomes (HLM); details: human, liver microsomes
[4] = ADME solubility determination in PBS at pH 2.0 and pH 7.4; type: physicochemical; details: phosphate buffered saline, 25 °C, thermodynamic from solid
Summary of the method: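 Dried 10 mM DMSO stock residues taken up in PBS pH 7.4 or pH 2.0, shaken 24 h at 25° C. After centrifugation, supernatant quantified by LC-MS/MS against a standard of known concentration, with a dilution factor applied.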

USP1/UAF1 enzyme = USP1/UAF1 enzyme (Homo sapiens, UniProt O94782); experiment: USP1/UAF1 deubiquitination assay (ubiquitin-rhodamine 110 substrate); type: biochemical; details: read-out: USP1 IC50 (Ub-Rho)
USP1/UAF1 enzyme, sequence (O94782 whole entry): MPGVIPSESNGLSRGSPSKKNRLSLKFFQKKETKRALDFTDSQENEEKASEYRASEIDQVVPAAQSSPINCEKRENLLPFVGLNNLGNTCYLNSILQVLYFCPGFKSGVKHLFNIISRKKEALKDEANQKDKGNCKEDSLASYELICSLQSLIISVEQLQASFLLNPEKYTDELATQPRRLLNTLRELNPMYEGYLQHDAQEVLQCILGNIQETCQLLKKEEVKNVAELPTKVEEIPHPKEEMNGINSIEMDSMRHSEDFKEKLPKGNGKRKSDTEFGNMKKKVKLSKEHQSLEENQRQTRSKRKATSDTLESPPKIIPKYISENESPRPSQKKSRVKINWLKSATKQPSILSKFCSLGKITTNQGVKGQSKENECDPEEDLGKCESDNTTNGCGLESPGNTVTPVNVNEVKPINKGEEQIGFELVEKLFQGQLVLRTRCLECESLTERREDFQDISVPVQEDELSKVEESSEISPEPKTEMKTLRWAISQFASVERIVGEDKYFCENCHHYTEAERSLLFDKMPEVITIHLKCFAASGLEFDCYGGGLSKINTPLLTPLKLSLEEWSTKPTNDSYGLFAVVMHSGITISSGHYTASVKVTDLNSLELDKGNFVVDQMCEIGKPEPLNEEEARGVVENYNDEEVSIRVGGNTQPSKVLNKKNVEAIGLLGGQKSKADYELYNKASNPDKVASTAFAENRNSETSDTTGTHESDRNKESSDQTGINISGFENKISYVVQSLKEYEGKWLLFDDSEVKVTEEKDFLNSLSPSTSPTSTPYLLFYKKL
USP1/UAF1 enzyme, sequence (Q8TAF3 whole entry partner): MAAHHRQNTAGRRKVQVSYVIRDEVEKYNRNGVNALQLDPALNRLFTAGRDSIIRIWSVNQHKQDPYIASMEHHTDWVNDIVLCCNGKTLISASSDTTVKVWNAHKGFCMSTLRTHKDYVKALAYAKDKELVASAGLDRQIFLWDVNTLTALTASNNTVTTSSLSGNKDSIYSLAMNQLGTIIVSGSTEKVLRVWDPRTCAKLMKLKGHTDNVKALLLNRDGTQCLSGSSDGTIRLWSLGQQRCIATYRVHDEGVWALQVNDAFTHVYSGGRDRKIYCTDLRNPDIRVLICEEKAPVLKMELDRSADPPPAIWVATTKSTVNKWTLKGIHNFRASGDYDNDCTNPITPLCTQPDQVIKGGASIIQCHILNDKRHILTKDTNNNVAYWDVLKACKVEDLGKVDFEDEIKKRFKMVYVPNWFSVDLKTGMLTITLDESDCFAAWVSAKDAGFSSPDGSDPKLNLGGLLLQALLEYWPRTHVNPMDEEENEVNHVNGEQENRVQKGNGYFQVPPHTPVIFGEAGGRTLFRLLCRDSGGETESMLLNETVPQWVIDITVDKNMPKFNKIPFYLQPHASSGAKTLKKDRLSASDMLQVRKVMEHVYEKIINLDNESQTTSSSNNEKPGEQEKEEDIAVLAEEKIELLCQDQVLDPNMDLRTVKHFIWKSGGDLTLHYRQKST
Summary of the method: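 0.05 nM USP1/UAF1 was preincubated 10 min with compounds (dose response from 10 μM) in 50 mM Tris-HCl pH 7.8, 0.5 mM EDTA, 0.01% BSA, 1 mM DTT, 0.01% Tween-20. 150 nM ubiquitin-rhodamine 110 started the reaction, read kinetically 30 min at Ex480/Em540; IC50 by four-parameter fit versus no-enzyme and DMSO controls.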

[5] = pH 2, aqueous buffer, PBS pH 2.0, 25° C., read-out: Solubility at pH 2.0
[6] = pH 7.4, aqueous buffer, PBS pH 7.4, 25° C., read-out: Solubility at pH 7.4

| SMILES | IC50 [1] [nM] | half-life at 1 μM [2] [min] | half-life at 1 μM [3] [min] | solubility at 24 h [4, 5] [µM] | solubility at 24 h [4, 6] [µM] | IC50 (USP1/UAF1 enzyme) [nM] |
| --- | --- | --- | --- | --- | --- | --- |
| COc1cc(CN2C(=O)CCn3nc(-c4c(OC)ncnc4C4CC4)cc32)ccc1-c1nc(C(F)(F)F)cn1C(C)C [Example 108] | < 100 | > 25 | > 25 | ≥ 10 | < 10 | < 100 |
| COc1cc(CN2C(=O)CCn3nc(-c4c(Cl)cnn4C(C)C)cc32)ccc1-c1nc(C(F)(F)F)cn1C(C)C [Example 109] | < 100 | > 25 | > 25 | < 10 | < 10 | < 100 |
| CCn1cc(C(F)(F)F)nc1-c1ccc(CN2C(=O)CCn3nc(-c4c(Cl)cnn4C(C)C)cc32)cn1 [Example 111] | 100 to 500 | > 25 | > 25 | < 10 | < 10 | < 100 |
| CCn1cc(C(F)(F)F)nc1-c1ccc(C(C)N2C(=O)CCn3nc(-c4c(Cl)cnn4C(C)C)cc32)cc1 (stereo not drawn) [Example 113] | < 100 | < 25 | < 25 | < 10 | < 10 | < 100 |
| CCn1cc(C(F)(F)F)nc1-c1ccc(C(C)N2C(=O)CCn3nc(-c4c(OC)ncnc4C4CC4)cc32)cc1 (stereo not drawn) [Example 114] | 100 to 500 | < 25 | > 25 | ≥ 10 | ≥ 10 | < 100 |
| CCOc1cc(C(F)(F)F)nn1-c1ccc(CN2C(=O)CCn3nc(-c4c(Cl)cnn4C(C)C)cc32)cc1 [Example 115] | < 100 | > 25 | > 25 | < 10 | < 10 | < 100 |
| CC(C)n1ncc(Cl)c1-c1cc2n(n1)CCC(=O)N2Cc1ccc(-c2cn(C)c(C(F)(F)F)n2)cc1 [Example 116] | 100 to 500 | > 25 | > 25 | < 10 | < 10 | < 100 |
| CCn1cc(Cl)nc1-c1ccc(CN2C(=O)CCn3nc(-c4c(Cl)cnn4C(C)C)cc32)cc1 [Example 118] | < 100 | < 25 | < 25 | < 10 | < 10 | < 100 |
| CCn1cc(C(F)(F)F)nc1-c1ccc(C(C)N2C(=O)CCn3nc(-c4c(Cl)cnn4C(C)C)cc32)cc1F (stereo not drawn) [Example 119] | < 100 | < 25 | > 25 | < 10 | < 10 | < 100 |
| CCn1cc(C(F)(F)F)nc1-c1ccc(C(C)N2C(=O)CCn3nc(-c4c(OC)ncnc4C4CC4)cc32)cc1F (stereo not drawn) [Example 120] | < 100 | > 25 | > 25 | < 10 | < 10 | < 100 |
| COc1ncnc(C2CC2)c1-c1cc2n(n1)CCC(=O)N2[C@@H](C)c1ccc(-c2nc(C(F)(F)F)cn2C(C)C)cc1 [Example 122] | > 500 | > 25 | > 25 | ≥ 10 | < 10 | 100 to 500 |
| COc1ncnc(C2CC2)c1-c1cc2n(n1)CCC(=O)N2[C@H](C)c1ccc(-c2nc(C(F)(F)F)cn2C(C)C)cc1 [Example 123] | < 100 | > 25 | > 25 | ≥ 10 | < 10 | < 100 |
| CCn1cc(C(F)(F)F)nc1-c1ccc([C@H](C)N2C(=O)CCn3nc(-c4c(OC)ncnc4C4CC4)cc32)cc1 [Example 124] | > 500 | < 25 | < 25 | ≥ 10 | ≥ 10 | 100 to 500 |
| CCn1cc(C(F)(F)F)nc1-c1ccc([C@@H](C)N2C(=O)CCn3nc(-c4c(OC)ncnc4C4CC4)cc32)cc1 [Example 125] | < 100 | > 25 | > 25 | ≥ 10 | < 10 | < 100 |
| COc1cc([C@@H](C)N2C(=O)CCn3nc(-c4c(OC)ncnc4C4CC4)cc32)ccc1-c1nc(C(F)(F)F)cn1C(C)C [Example 129] | < 100 | < 25 | > 25 | ≥ 10 | < 10 | < 100 |
| CCn1cc(C(F)(F)F)nc1-c1ccc(CN2C(=O)CCn3nc(-c4c(Cl)cnn4[C@H](C)COC)cc32)cc1F [Example 131] | < 100 | < 25 | < 25 | < 10 | < 10 | < 100 |
| CCn1cc(C(F)(F)F)nc1-c1ccc(CN2C(=O)CCn3nc(-c4c(Cl)cnn4[C@@H](C)COC)cc32)cc1F [Example 132] | < 100 | < 25 | < 25 | < 10 | < 10 | < 100 |
| CC(C)n1ncc(Cl)c1-c1cc2n(n1)CCC(=O)N2Cc1ccc(-c2nn(C)cc2C#N)cc1 [Example 133] | 100 to 500 | > 25 | > 25 | < 10 | < 10 | < 100 |
| COc1cc(C)nn1-c1ccc(CN2C(=O)CCn3nc(-c4c(Cl)cnn4C(C)C)cc32)cc1 [Example 135] | < 100 | < 25 | < 25 | < 10 | < 10 | < 100 |
| CCn1cc(C(F)(F)F)nc1-c1ccc([C@@H](C)N2C(=O)CCn3nc(-c4c(Cl)cnn4C(C)C)cc32)cn1 [Example 139] | 100 to 500 | > 25 | > 25 | < 10 | < 10 | < 100 |
| CCn1cc(C(F)(F)F)nc1-c1c(F)cc(CN2C(=O)CCn3nc(-c4c(OC)ncnc4C4CC4)cc32)cc1OC [Example 140] | < 100 | > 25 | > 25 | ≥ 10 | < 10 | < 100 |
| CCn1cc(C(F)(F)F)nc1-c1c(F)cc(CN2C(=O)CCn3nc(-c4c(Cl)cnn4C(C)C)cc32)cc1OC [Example 141] | < 100 | > 25 | > 25 | < 10 | < 10 | < 100 |
| CCn1cc(C(F)(F)F)nc1-c1ccc([C@H](C)N2C(=O)CCn3nc(-c4c(OC)ncnc4C4CC4)cc32)cc1F [Example 142] | 100 to 500 | < 25 | > 25 | ≥ 10 | < 10 | 100 to 500 |
| CCn1cc(C(F)(F)F)nc1-c1ccc([C@@H](C)N2C(=O)CCn3nc(-c4c(OC)ncnc4C4CC4)cc32)cc1F [Example 143] | < 100 | > 25 | > 25 | ≥ 10 | ≥ 10 | < 100 |
